Counter-ions that a name gives are not always drawn.
Tested on: spontaneously hypotensive rats (SHR)
Assay: Hypotensive activity: systolic blood pressure by tail plethysmographic technique after oral dosing
Format: in vivo
Details: 30 mg/kg orally, SHR fasted overnight
Description: A test compound dissolved or suspended in water was administered orally at a dose of 30 mg/kg to spontaneously […] (SHR) fasted overnight, and the systolic blood pressure of the rats was measured at intervals by the tail plethysmographic technique (The Journal of Laboratory and Clinical Medicine, Vol. 78(1971), page 957). The hypotensive activity of the test compound was estimated in terms of "Decrease in Blood pressure (Δ mm Hg)" which was calculated by the following formula: Decrease in Blood pressure (Δ mm Hg) = [formula]

## COc1ccc([C@@H]2Sc3ccc4ccccc4c3N(CCN(C)C)C(=O)[C@@H]2OC(C)=O)cc1 (racemic) [Test compound, (±)-cis-2-(4-methoxyphenyl)-3-acetoxy-5-[2-dimethylamino)ethyl]-2,3-dihydro-naphtho[2,1-b][1,5]thiazepin-4(5H)-one fumarate]
Time after dosing 1 hr
  Decrease in Blood pressure: 58.3±8.8 Δmm Hg
Time after dosing 2 hrs
  Decrease in Blood pressure: 51.3±7.7 Δmm Hg
Time after dosing 5 hrs
  Decrease in Blood pressure: 34.0±6.2 Δmm Hg

From EP0302379A1, “Naphthothiazepine derivatives and a process for preparing the same” (TANABE SEIYAKU CO., LTD., priority 1987, dated 1989)
